Here are results for one molecule from US20100310665A1, “BACTERIOSTATIC OR BACTERIOCIDAL COMPOSITIONS AND METHODS” (Revalesio Corporation, priority 2007, published 2010).

This experiment concerns Methicillin-Resistant Staphylococcus Aureus (MRSA). Nature of the experiment: MRSA bacteriocidal effects, plates with no growth. The format is cell-based. On the set-up: concentration or dose not given beside the values. To be noted: fluids in combination with oxacillin.

Each structure is given as a SMILES string.

In the case of `Cc1onc(-c2ccccc2)c1C(=O)N[C@@H]1C(=O)N2[C@@H]1SC(C)(C)[C@@H]2C(=O)O` [Drug, oxacillin], the “Percentage of plates with no growth at indicated time” value runs as follows: (0 min) 16.67%; (30 min) 0.00%; (120 min) 0.00%; (240 min) 0.00%; (480 min) 0.00%; (1080 min) 0.00%. Also, for the setting “1440 min”, the “Percentage of plates with no growth at indicated time” value is 0.00%.
